# Results reported in US10738028B2, “Spiro three-membered ring, spiro five-membered ring peptide deformylase inhibitor and use thereof in antibacteria and anti-tumor” (priority 2016, dated 2020).
# Assays:
# Assay type in all cases: cell-based
# [1] = tested on: BEL-7402 liver cancer cell line; experiment: CCK-8 proliferation inhibition; conditions: concentration of 30 μM, 72 hours, 30 µM
# Outline: (§1)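 Plating at 2000 cells/well, then incubation overnight at 37° C. Next, a range of compound concentrations for 72 hours (control 1‰ DMSO). Finally, medium decanted and CCK-8 diluted 1:10 added.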
# [2] = tested on: A549 lung cancer cell line; experiment: CCK-8 proliferation inhibition; conditions: concentration of 30 μM
# Outline: as §1
# [3] = tested on: MGC-803 gastric cancer cell line; experiment: CCK-8 proliferation inhibition; conditions: concentration of 30 μM, 72 hours, 30 µM
# Outline: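 Cells were seeded at 2000 cells/well and cultured overnight at 37° C, 5% CO2, then exposed for 72 hours to compounds diluted from DMSO stocks. Controls received 1‰ DMSO. CCK-8 (1:10 diluted) replaced the medium. MGC-803 and Jurkat were grown in 1640, PC3 in F12, and MCF-7 in DMEM high glucose, each with 10% newborn bovine serum.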
# [4] = tested on: HCT-116 colorectal cancer cell line; experiment: CCK-8 proliferation inhibition; conditions: concentration of 30 μM; 72 hours; CCK-8; 30 µM
# Outline: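 HCT-116 cells, seeded at 2000 cells/well in McCoy's 5A with 10% newborn bovine serum, were cultured overnight at 37° C., 5% CO2, then exposed to compound dilutions in medium for 72 hours. Viability was read with 1:10 diluted CCK-8; controls received 1‰ DMSO.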
# [5] = tested on: Enterococcus faecalis (EFA); experiment: MIC, two-fold agar dilution (CLSI), clinical isolates
# Outline: (§2)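 Test samples were assayed by the CLSI-recommended two-fold agar dilution method, and the minimum inhibitory concentration against each tested strain was determined.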
# [6] = tested on: methicillin-sensitive Staphylococcus epidermidis (MSSE); experiment: as above
# Outline: as §2
# [7] = tested on: Enterococcus faecium (EFM); experiment: as above
# Outline: as §2
# [8] = tested on: methicillin-resistant Staphylococcus epidermidis (MRSE); experiment: as above
# Outline: as §2
# [9] = tested on: methicillin-resistant Staphylococcus aureus (MRSA); experiment: as above
# Outline: as §2
# [10] = tested on: Escherichia coli (including ESBLs, non-ESBLs); experiment: as above
# Outline: as §2
# [11] = tested on: methicillin-sensitive Staphylococcus aureus (MSSA); experiment: as above
# Outline: as §2
# [12] = tested on: Streptococcus pneoumoniae (SPN); experiment: as above
# Outline: as §2
# [13] = tested on: Moraxella catarrhalis (BCA); experiment: as above
# Outline: as §2
smiles,measurement,setting,value
Cc1cnc(NC(=O)[C@@H]2CC3(CC3)CN2C(=O)[C@@H](CC(=O)NO)CC2CCCC2)s1 [Example 65],"Inhibition of proliferation, Liver cancer BEL-7402",[1],81%
same,inhibition at 30 µM,"[2]; Homo sapiens, A549, 72 h",> 50%
same,"Inhibition of proliferation, Lung cancer A549","[2]; 72 hours, 30 µM",67%
same,"Inhibition of proliferation, Gastric cancer MGC-803",[3],72%
same,HCT116 inhibition rate/%,[4],83%
same,"Anti-bacterial activity (MIC), strain EFA 15-1",[5]; clinical isolate EFA 15-1,32 µg/mL
same,"Anti-bacterial activity (MIC), strain EFA 15-2",[5]; clinical isolate EFA 15-2,32 µg/mL
same,"Anti-bacterial activity (MIC), strain EFA 15-3",[5]; clinical isolate EFA 15-3,32 µg/mL
same,"Anti-bacterial activity (MIC), strain EFA 15-4",[5]; clinical isolate EFA 15-4,32 µg/mL
same,"Anti-bacterial activity (MIC), strain EFA 15-5",[5]; clinical isolate EFA 15-5,32 µg/mL
same,"Anti-bacterial activity (MIC), strain EFA 15-6",[5]; clinical isolate EFA 15-6,> 32 µg/mL
same,"Anti-bacterial activity (MIC), strain EFA 15-9",[5]; clinical isolate EFA 15-9,4 µg/mL
same,"Anti-bacterial activity (MIC), strain MSSE 15-4",[6]; clinical isolate MSSE 15-4,0.125 µg/mL
same,"Anti-bacterial activity (MIC), strain MSSE 15-5",[6]; clinical isolate MSSE 15-5,0.06 µg/mL
same,"Anti-bacterial activity (MIC), strain MSSE 15-6",[6]; clinical isolate MSSE 15-6,0.015 µg/mL
same,"Anti-bacterial activity (MIC), strain EFM 15-1",[7]; clinical isolate EFM 15-1,> 32 µg/mL
same,"Anti-bacterial activity (MIC), strain EFM 15-2",[7]; clinical isolate EFM 15-2,> 32 µg/mL
same,"Anti-bacterial activity (MIC), strain EFM 15-3",[7]; clinical isolate EFM 15-3,> 32 µg/mL
same,"Anti-bacterial activity (MIC), strain EFM 15-4",[7]; clinical isolate EFM 15-4,0.25 µg/mL
same,"Anti-bacterial activity (MIC), strain EFM 15-5",[7]; clinical isolate EFM 15-5,0.125 µg/mL
same,"Anti-bacterial activity (MIC), strain EFM 15-6",[7]; clinical isolate EFM 15-6,1 µg/mL
same,"Anti-bacterial activity (MIC), strain MRSE 15-1",[8]; clinical isolate MRSE 15-1,0.015 µg/mL
same,"Anti-bacterial activity (MIC), strain MRSE 15-2",[8]; clinical isolate MRSE 15-2,0.125 µg/mL
same,"Anti-bacterial activity (MIC), strain MRSE 15-3",[8]; clinical isolate MRSE 15-3,0.125 µg/mL
same,"Anti-bacterial activity (MIC), strain MRSE 15-7",[8]; clinical isolate MRSE 15-7,0.125 µg/mL
same,"Anti-bacterial activity (MIC), strain MRSA 15-1",[9]; clinical isolate MRSA 15-1,0.06 µg/mL
same,"Anti-bacterial activity (MIC), strain MRSA 15-2",[9]; clinical isolate MRSA 15-2,0.125 µg/mL
same,"Anti-bacterial activity (MIC), strain MRSA 15-3",[9]; clinical isolate MRSA 15-3,0.06 µg/mL
same,"Anti-bacterial activity (MIC), strain MRSA 15-4",[9]; clinical isolate MRSA 15-4,0.125 µg/mL
same,"Anti-bacterial activity (MIC), strain ECO+ 15-1",[10]; clinical isolate ECO+ 15-1,8 µg/mL
same,"Anti-bacterial activity (MIC), strain ECO+ 15-2",[10]; clinical isolate ECO+ 15-2,8 µg/mL
same,"Anti-bacterial activity (MIC), strain ECO+ 15-3",[10]; clinical isolate ECO+ 15-3,16 µg/mL
same,"Anti-bacterial activity (MIC), strain ECO+ 15-4",[10]; clinical isolate ECO+ 15-4,16 µg/mL
same,"Anti-bacterial activity (MIC), strain ECO− 15-1",[10]; clinical isolate ECO− 15-1,8 µg/mL
same,"Anti-bacterial activity (MIC), strain ECO− 15-2",[10]; clinical isolate ECO− 15-2,16 µg/mL
same,"Anti-bacterial activity (MIC), strain ECO− 15-3",[10]; clinical isolate ECO− 15-3,16 µg/mL
same,"Anti-bacterial activity (MIC), strain ECO− 15-4",[10]; clinical isolate ECO− 15-4,8 µg/mL
same,"Anti-bacterial activity (MIC), strain MSSA 15-3",[11]; clinical isolate MSSA 15-3,0.125 µg/mL
same,"Anti-bacterial activity (MIC), strain MSSA 15-4",[11]; clinical isolate MSSA 15-4,0.015 µg/mL
same,"Anti-bacterial activity (MIC), strain MSSA 15-5",[11]; clinical isolate MSSA 15-5,0.015 µg/mL
same,"Anti-bacterial activity (MIC), strain MSSA 15-6",[11]; clinical isolate MSSA 15-6,16 µg/mL
same,"Anti-bacterial activity (MIC), strain SPN 16-2",[12]; clinical isolate SPN 16-2,0.125 µg/mL
same,"Anti-bacterial activity (MIC), strain SPN 16-4",[12]; clinical isolate SPN 16-4,0.06 µg/mL
same,"Anti-bacterial activity (MIC), strain BCA 14-1",[13]; clinical isolate BCA 14-1,0.5 µg/mL
same,"Anti-bacterial activity (MIC), strain BCA 14-4",[13]; clinical isolate BCA 14-4,0.5 µg/mL
same,"Anti-bacterial activity (MIC), strain BCA 14-5",[13]; clinical isolate BCA 14-5,0.125 µg/mL
same,"Anti-bacterial activity (MIC), strain BCA 14-6",[13]; clinical isolate BCA 14-6,0.125 µg/mL
same,"Anti-bacterial activity (MIC), strain BCA 14-7",[13]; clinical isolate BCA 14-7,0.5 µg/mL
same,"Anti-bacterial activity (MIC), strain BCA 14-8",[13]; clinical isolate BCA 14-8,0.5 µg/mL
same,"Anti-bacterial activity (MIC), strain BCA 14-10",[13]; clinical isolate BCA 14-10,0.125 µg/mL
